Like-named read-outs stand apart in the source and are kept apart here.
What was measured:
Assay type in all cases: binding
[1] = target: T1, HeLa cell extract proteins (Homo sapiens, UniProt Q9UBQ5)
T1 construct: endogenous in cells; host or cells: HeLa cell extract

[2] = target: T2, HeLa cell extract proteins (Homo sapiens, UniProt P60891)
T2 construct: endogenous in cells; host or cells: HeLa cell extract
T2 sequence (P60891 1-318): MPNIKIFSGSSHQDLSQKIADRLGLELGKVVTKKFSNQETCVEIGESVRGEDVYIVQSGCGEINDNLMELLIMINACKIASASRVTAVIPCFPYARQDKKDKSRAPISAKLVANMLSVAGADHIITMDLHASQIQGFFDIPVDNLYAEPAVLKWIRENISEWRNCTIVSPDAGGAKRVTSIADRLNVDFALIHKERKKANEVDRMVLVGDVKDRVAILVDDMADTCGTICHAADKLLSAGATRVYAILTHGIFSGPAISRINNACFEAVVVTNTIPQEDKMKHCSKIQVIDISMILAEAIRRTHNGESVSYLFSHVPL

[3] = target: T3, HeLa cell extract proteins (Homo sapiens, UniProt P52294)
T3 construct: endogenous in cells; host or cells: HeLa cell extract

[4] = target: T4, HeLa cell extract proteins (Homo sapiens, UniProt Q13535)
T4 construct: endogenous in cells; host or cells: HeLa cell extract

[5] = target: T5, HeLa cell extract proteins (Homo sapiens, UniProt P48163)
T5 construct: endogenous in cells; host or cells: HeLa cell extract
T5 sequence (P48163 1-572): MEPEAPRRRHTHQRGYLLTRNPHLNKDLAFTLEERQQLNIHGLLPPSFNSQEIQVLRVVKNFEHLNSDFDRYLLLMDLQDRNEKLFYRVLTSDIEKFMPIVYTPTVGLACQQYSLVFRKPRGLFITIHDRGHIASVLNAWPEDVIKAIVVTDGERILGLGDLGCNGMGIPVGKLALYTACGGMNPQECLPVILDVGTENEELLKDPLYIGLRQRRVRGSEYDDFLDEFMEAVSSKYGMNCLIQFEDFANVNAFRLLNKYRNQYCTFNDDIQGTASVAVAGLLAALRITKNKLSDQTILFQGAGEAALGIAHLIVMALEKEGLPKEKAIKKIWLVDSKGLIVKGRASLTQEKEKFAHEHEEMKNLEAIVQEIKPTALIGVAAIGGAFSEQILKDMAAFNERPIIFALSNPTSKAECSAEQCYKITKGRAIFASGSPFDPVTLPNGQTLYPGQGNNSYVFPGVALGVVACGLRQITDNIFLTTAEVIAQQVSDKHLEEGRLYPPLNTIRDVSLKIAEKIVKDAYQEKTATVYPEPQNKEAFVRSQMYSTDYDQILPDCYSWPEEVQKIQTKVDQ

[6] = target: T6, HeLa cell extract proteins (Homo sapiens, UniProt O14979)
T6 construct: endogenous in cells; host or cells: HeLa cell extract
T6 sequence (O14979 1-420): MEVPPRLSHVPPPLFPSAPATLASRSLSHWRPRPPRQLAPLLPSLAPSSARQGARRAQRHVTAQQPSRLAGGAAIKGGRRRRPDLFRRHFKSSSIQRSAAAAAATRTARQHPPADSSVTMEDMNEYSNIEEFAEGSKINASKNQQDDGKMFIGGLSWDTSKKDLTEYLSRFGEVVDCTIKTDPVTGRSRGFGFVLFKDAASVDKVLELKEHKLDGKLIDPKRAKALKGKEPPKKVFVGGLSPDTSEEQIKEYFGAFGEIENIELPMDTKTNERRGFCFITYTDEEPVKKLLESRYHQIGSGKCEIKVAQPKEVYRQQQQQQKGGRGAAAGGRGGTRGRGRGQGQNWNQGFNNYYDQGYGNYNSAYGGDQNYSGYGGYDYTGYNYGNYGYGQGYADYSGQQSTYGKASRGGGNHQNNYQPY

[7] = target: T7, HeLa cell extract proteins (Homo sapiens, UniProt P12236); details: captured protein SLC25A6; HeLa
T7 construct: endogenous in cells; host or cells: HeLa cell extract
T7 sequence (P12236 1-298): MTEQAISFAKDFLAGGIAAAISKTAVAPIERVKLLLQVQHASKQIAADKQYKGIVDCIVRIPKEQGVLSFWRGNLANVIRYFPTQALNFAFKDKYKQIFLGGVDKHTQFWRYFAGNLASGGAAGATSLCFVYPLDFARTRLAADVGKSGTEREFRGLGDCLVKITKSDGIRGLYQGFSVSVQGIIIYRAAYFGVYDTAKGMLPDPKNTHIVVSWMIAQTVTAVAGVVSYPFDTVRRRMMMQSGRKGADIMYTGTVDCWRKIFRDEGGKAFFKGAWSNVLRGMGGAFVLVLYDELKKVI

[8] = target: T8, HeLa cell extract proteins (Homo sapiens, UniProt P36776); details: protein LONP1; HeLa
T8 construct: endogenous in cells; host or cells: HeLa cell extract
T8 sequence (P36776 68-959): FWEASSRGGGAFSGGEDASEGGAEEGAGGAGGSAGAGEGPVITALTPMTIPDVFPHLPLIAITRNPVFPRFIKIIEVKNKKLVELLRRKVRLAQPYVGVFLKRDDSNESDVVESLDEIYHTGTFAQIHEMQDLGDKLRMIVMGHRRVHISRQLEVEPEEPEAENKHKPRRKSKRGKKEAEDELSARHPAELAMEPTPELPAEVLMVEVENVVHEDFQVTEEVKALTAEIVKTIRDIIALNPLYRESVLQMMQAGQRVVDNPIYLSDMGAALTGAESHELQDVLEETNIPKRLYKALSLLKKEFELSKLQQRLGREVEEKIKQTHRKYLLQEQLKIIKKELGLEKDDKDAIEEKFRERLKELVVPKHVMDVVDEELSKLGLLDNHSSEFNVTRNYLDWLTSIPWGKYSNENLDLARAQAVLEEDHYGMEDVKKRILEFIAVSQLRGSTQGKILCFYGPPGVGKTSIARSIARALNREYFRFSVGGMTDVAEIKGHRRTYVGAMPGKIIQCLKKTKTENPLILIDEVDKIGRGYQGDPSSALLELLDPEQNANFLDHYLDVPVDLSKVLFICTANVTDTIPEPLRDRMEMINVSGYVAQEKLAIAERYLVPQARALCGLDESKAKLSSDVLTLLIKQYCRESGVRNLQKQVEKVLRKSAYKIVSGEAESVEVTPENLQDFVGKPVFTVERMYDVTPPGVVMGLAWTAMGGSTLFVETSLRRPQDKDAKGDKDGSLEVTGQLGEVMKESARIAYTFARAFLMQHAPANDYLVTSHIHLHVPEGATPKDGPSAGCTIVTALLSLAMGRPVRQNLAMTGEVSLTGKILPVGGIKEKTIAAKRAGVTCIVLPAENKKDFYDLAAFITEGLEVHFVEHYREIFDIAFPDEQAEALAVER

T4 sequence (Q13535 whole entry): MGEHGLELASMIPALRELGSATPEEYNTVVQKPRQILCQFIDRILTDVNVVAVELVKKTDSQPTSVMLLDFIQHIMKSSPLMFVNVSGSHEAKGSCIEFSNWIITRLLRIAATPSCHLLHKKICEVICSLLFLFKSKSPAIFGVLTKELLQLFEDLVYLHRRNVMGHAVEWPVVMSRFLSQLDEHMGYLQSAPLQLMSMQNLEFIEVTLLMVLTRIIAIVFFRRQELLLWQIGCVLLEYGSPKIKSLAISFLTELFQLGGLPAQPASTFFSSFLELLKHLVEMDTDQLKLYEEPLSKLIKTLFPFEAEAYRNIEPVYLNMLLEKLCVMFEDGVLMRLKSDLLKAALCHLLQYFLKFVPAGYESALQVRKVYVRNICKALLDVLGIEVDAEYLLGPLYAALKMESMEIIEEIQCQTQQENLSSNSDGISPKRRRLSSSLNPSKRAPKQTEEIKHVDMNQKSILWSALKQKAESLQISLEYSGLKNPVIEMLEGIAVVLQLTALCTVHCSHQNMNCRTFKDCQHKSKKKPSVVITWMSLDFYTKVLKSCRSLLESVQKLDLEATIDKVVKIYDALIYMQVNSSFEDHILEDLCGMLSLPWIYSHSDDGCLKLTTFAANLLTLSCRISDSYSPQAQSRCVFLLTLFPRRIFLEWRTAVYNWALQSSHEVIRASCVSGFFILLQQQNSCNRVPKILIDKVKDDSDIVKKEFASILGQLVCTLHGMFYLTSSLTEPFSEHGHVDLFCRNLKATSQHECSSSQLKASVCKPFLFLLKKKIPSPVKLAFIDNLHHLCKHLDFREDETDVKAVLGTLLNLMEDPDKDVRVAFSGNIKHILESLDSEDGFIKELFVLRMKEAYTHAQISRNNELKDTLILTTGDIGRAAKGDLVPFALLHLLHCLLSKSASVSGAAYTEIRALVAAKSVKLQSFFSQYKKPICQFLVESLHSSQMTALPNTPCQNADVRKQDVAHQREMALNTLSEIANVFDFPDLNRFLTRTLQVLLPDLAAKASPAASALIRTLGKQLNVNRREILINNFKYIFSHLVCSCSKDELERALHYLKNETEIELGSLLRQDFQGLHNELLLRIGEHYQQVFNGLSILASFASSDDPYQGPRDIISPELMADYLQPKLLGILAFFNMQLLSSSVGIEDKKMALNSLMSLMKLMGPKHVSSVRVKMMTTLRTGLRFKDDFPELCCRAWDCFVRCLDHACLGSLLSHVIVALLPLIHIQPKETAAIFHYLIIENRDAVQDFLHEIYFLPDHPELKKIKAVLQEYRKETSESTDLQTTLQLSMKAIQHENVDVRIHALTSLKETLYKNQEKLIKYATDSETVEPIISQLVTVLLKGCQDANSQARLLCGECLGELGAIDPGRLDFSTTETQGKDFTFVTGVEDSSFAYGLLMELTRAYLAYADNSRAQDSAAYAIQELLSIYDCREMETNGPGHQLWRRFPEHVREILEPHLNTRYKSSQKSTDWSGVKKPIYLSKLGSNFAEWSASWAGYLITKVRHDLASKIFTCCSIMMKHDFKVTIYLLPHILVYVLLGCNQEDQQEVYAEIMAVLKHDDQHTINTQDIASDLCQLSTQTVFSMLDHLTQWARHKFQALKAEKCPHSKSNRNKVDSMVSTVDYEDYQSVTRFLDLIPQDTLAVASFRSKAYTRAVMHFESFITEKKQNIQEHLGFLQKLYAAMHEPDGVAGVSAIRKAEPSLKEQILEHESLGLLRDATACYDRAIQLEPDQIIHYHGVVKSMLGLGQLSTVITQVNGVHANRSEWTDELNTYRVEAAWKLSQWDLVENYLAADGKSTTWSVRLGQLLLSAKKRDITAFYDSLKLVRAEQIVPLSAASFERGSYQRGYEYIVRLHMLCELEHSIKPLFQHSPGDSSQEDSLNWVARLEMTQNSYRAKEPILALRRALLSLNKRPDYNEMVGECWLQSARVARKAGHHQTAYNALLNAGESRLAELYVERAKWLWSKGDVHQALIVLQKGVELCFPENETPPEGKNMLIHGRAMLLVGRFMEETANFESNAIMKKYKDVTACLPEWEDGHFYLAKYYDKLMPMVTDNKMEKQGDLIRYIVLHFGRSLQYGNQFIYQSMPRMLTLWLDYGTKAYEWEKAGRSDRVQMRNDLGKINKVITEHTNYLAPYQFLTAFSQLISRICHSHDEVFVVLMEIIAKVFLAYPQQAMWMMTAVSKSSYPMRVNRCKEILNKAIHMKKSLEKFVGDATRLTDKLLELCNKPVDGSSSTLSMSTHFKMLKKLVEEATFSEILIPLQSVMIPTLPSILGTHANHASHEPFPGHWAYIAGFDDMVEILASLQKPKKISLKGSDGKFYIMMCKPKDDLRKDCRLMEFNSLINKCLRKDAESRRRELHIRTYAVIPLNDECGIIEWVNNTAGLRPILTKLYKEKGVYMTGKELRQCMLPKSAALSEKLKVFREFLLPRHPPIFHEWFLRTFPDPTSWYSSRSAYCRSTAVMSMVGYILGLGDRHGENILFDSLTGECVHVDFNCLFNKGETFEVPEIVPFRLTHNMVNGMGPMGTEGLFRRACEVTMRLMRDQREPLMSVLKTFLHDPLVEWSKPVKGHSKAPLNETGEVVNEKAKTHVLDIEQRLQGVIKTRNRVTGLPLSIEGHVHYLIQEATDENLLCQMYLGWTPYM
T3 sequence (P52294 whole entry): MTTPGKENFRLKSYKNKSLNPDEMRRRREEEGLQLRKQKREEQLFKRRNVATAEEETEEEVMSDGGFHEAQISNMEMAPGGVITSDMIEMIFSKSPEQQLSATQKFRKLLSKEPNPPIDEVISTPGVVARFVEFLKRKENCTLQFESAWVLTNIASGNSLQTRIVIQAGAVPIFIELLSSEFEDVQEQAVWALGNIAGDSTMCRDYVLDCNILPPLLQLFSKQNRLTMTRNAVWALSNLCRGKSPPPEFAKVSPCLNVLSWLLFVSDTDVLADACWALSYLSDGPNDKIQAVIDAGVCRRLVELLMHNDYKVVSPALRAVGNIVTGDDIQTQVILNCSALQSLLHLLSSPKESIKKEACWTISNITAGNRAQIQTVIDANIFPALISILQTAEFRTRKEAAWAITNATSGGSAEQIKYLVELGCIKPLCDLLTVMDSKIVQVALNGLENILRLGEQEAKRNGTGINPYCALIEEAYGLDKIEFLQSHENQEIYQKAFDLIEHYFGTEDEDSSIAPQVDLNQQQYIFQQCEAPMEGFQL
T1 sequence (Q9UBQ5 whole entry): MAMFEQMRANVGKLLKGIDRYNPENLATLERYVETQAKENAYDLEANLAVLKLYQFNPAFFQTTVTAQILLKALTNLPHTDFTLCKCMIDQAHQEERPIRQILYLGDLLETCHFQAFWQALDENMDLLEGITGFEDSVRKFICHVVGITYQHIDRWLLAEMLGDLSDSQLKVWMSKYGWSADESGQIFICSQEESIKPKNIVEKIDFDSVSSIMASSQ

Row | Compound | fold changes relative to vehicle control ([1]; protein EIF3K, HeLa) | fold changes relative to vehicle control ([2]; HeLa, protein PRPS1) | fold changes relative to vehicle control ([3]; HeLa, protein KPNA1) | fold changes relative to vehicle control ([4]; protein ATR, HeLa) | fold changes relative to vehicle control ([5]; protein ME1, HeLa) | fold changes relative to vehicle control ([6]; HeLa, captured protein HNRPDL) | fold changes relative to vehicle control [7] | fold changes relative to vehicle control [8] | also measured
1 | Nc1nc2c(c(=O)[nH]1)N(C=O)C(CNc1ccc(C(=O)N[C@@H](CCC(=O)O)C(=O)O)cc1)CN2 (stereo partly drawn) [LEU, leucovorin] | 0.94 | 1.12 | 0.9 | 0.66 | 0.79 | 1.09 | – | – | –
2 | NCCCNc1ccc(C(=O)NC(CCC(=O)O)C(=O)O)cc1 (stereo not drawn) [compound 7] | 1.1 | 0.9 | 0.93 | 0.54 | 0.86 | 1.03 | – | – | –
3 | CCCCCCOc1cccc(Cc2cnc(N)nc2N)c1 [compound 2] | – | – | – | – | – | – | 1.04 | 1.41 | –
4 | CCCCCCOc1ccc(Cc2cnc(N)nc2N)cc1 [compound 1] | – | – | – | – | – | – | 0.98 | 0.86 | –
5 | Nc1nc2cccc(-c3ccccc3)c2n1Cc1ccc(Cl)c(Cl)c1 [compound 3] | – | – | – | – | – | – | 1.01 | 1.16 | –
6 | NCCOCCOCC(=O)Nc1nc2ncc(CNc3ccc(C(=O)NC(CCC(=O)O)C(=O)O)cc3)nc2c(=O)[nH]1 (stereo not drawn) [compound 6] | 1.06 | 1.08 | 0.98 | 0.69 | 1.02 | 1.06 | – | – | –
7 | Nc1nc2[nH]cc(CCc3ccc(C(=O)N[C@@H](CCC(=O)O)C(=O)O)cc3)c2c(=O)[nH]1 [PTX, pemetrexed] | – | – | – | – | – | – | – | – | fold changes relative to vehicle control [1]: 0.97; fold changes relative to vehicle control [2]: 1.07; fold changes relative to vehicle control [3]: 0.87; fold changes relative to vehicle control [4]: 0.79; fold changes relative to vehicle control [5]: 0.84; fold changes relative to vehicle control [6]: 1.02

— paper PMC6199744, “Development of Chemical Proteomics for the Folateome and Analysis of the Kinetoplastid Folateome” (ACS Infectious Diseases, 2018)
